Source: patent US11306100B2, “Spirooxindole compounds as GSK3B inhibitors and process for preparation thereof” (COUNCIL OF SCIENTIFIC & INDUSTRIAL RESEARCH, priority 2017, dated 2022)

Test system: cellular GSK3β signalling in PANC-1 cells
Experiment: Western blot of GSK3β signalling and NFkB target proteins in PANC-1 cells
Format: cell-based
Conditions: for phosphorylation of GSK3β: PANC-1 cells treated with compound; for β-catenin level: PANC-1 cells versus control (DMSO); for BCL2 and XIAP levels: compound with TRAIL versus TRAIL alone or compound alone; for bcl2 and xiap expression: dose dependence of compound; for Cyclin D1 levels / phosphorylation of GSK3β (9th serine residue): in combination with TRAIL; for p-GS (phosphorylated glycogen synthase) level: increasing concentrations of compound, total GS unaffected
Experimental: The compounds inhibiting GSK3β activity in-vitro added to PANC-1 cells to determine their potential against intracellular GSK3β signalling pathways in cancer cells. Briefly, PANC-1 cells were plated in 60 mm plates (100,000 cells/4 mL) and cultured in the standard DMEM medium containing 10% serum. After culturing for 18 hrs, different concentrations of test compounds or standard controls prepared in DMSO were added to culture media to achieve final concentration 0 to 100 μM of compound to cells. Cells were further continued to grow for 48 h with constant supply of 5% CO2 in humid incubator. The time course (0 to 48 h) experiment was carried out simultaneously with fixed concentration of compound showing 50% growth inhibition. At the end of the experiments, all cells were scraped directly in cold PBS and washed for 3 times before lysis directly in 2D lysis buffer (8M urea, 2M thiourea, 4% CHAPS, 4 mM tris base and 65 mM DTT) for isolation of proteins to perform western blots. The protein concentration was determined by modified Bradford assay.
To perform western blot, protein extracts were separated on 12% SDS-PAGE and electrophoretically (1 mA/cm^2 membrane for 1 hr) transferred onto the nitrocellulose membrane by semi-dry method. After protein transfer, membrane was stained with Ponceau S solution (0.2% Ponceau S in 3% Trichloroacetic acid) for 2 min to see efficiency of electrophoretic transfer. The membrane was destained in ddH2O to visualize the protein bands and further destained with TBST (20 mM Tris, 138 mM NaCl, pH 7.6 and 0.1% Tween 20) for blotting. To avoid non-specific detection of target proteins, blotted membranes were blocked with BSA (3% BSA in TBST solution). All antibodies against specific protein targets of interest were purchased from Cell Signaling Technology, USA if not mentioned specifically. Then the blots were incubated with antibodies prepared in blocking buffer (1:1000 Antibody to blocking buffer dilution) for 18 h with constant shaking at 4° C. Three washing steps in PBS each for 5 mins removed the excess and non-specific antibodies. For visualization, blots were incubated with secondary antibody conjugated to either horseradish peroxidase or alkaline phosphatase [anti-(mouse IgG) or anti-(rabbit IgG), diluted 1:5000 in TBST] for 1 h at room temperature. After three washes in PBS, the reaction was developed either by addition of LumiGLO substrate (Cell Signaling Technology) followed by capturing on X-ray film or addition of chromogenic NBT (nitro-blue tetrazolium chloride) and BCIP (5-bromo-4-chloro-3′-indolyphosphate p-toluidine salt) substrate for alkaline phosphatase developing purple colored bands. The blots were scanned for densitometry performed using Image-J program.

| SMILES | phosphorylation of GSK3β | β-catenin level | BCL2 and XIAP levels | bcl2 and xiap expression | Cyclin D1 levels | phosphorylation of GSK3β (9th serine residue) | p-GS (phosphorylated glycogen synthase) level |
| --- | --- | --- | --- | --- | --- | --- | --- |
| CCOC(=O)c1ccc(-c2ccccc2OCc2cn(CC3CC4(CO3)C(=O)Nc3ccccc34)nn2)nc1C (centres unmarked) [AB-O, Ethyl 2-methyl-6-(2-((1-((2′-oxo-4,5-dihydro-2H-spiro[furan-3,3′-indoline]-5-yl)methyl)-1H-1,2,3-triazol-4-yl)methoxy)phenyl)nicotinate] | significantly decreased | accumulation of β-catenin | synergistic effect | decreased in a dose dependent manner | significantly reduced | synergistic effect | significantly decreased |
| COc1ccccc1N1CCN(CC2CC3(CO2)C(=O)Nc2ccccc23)CC1 (centres unmarked) [AB-U, 5-((4-(2-Methoxyphenyl)piperazin-1-yl)methyl)-4,5-dihydro-2H-spiro[furan-3,3′-indolin]-2′-one] | significantly decreased | accumulation of β-catenin | synergistic effect | decreased in a dose dependent manner | significantly reduced | synergistic effect | significantly decreased |
